One test addresses T1, PI3Kα (wild-type) (Homo sapiens, UniProt P42336).
T1 construct: made in house; host or cells: SF9 insect cells
Description: PI3 Kinase TR-FRET assay, PI3Kα (wild-type). It counts as biochemical. The conditions noted are these: wild-type P110/P85α, 10 μM ATP. On the procedure: The ability of compounds of the invention to inhibit PI3K activity was determined in a homogeneous TR-FRET assay using a PI3K assay kit (Millipore, USA; cat #33-016) according to manufacturer's instructions. PI3-Kinases (isoforms α, β, γ and δ) catalyze the phosphorylation of phosphatidylinositol, PIP2 to PIP3 in the presence of ATP and Mg^2+. The PIP3 product is detected by displacement of biotin-PIP3 from an energy transfer complex consisting of Europium labeled anti-GST monoclonal antibody, a GST-tagged PH domain, biotinylated PIP3 and Streptavidin-APC. Excitation of Europium in the complex results in an energy transfer to the APC and a fluorescence emission at 665 nm. The PIP3 product displaces biotin-PIP3 from the complex resulting in a loss of energy transfer and thus a decrease in signal.
To test for the ability of compounds to inhibit the activity of PI3Kα (wild-type), exemplary compounds of formula (I) were dissolved in DMSO and directly distributed into 384-well plates at a volume of 0.5 μL. 14.5 μL of P110/P85α/PIP2 mixture in buffer (obtained from the Millipore kit) containing MgCl2 (40 mM) and DTT (5 mM) was added to compound wells and incubated for 60 minutes at room temperature. P110/P85α was expressed in SF9 insect cells and purified nickel column extraction. Five ng of wild-type P110/P85α was used in the assay. The kinase reaction was started by the addition of ATP. The assay concentrations of both PIP2 and ATP were 10 μM. The reaction mixture was incubated for 30 minutes at room temperature and was terminated by the addition of stop mix and detection mix. Fluorescence was measured at 615 and 665 nm upon excitation at 340 nm in a Victor™ V5 fluorometer (Perkin Elmer, USA). The fluorescence emission ratio at 665 to 615 nm, proportional to the kinase activity, was plotted against the compound concentration to generate dose-response curves and IC50 values were determined using GraphPad Prism® 5 software.
Background: TR-FRET usually uses a lanthanide donor and a delayed reading to cut background.

Another test deals with T2, mTOR kinase (Homo sapiens, UniProt P42345).
T2 construct: purchased Millipore, USA
T2 sequence (P42345 1362-2549 limits assumed): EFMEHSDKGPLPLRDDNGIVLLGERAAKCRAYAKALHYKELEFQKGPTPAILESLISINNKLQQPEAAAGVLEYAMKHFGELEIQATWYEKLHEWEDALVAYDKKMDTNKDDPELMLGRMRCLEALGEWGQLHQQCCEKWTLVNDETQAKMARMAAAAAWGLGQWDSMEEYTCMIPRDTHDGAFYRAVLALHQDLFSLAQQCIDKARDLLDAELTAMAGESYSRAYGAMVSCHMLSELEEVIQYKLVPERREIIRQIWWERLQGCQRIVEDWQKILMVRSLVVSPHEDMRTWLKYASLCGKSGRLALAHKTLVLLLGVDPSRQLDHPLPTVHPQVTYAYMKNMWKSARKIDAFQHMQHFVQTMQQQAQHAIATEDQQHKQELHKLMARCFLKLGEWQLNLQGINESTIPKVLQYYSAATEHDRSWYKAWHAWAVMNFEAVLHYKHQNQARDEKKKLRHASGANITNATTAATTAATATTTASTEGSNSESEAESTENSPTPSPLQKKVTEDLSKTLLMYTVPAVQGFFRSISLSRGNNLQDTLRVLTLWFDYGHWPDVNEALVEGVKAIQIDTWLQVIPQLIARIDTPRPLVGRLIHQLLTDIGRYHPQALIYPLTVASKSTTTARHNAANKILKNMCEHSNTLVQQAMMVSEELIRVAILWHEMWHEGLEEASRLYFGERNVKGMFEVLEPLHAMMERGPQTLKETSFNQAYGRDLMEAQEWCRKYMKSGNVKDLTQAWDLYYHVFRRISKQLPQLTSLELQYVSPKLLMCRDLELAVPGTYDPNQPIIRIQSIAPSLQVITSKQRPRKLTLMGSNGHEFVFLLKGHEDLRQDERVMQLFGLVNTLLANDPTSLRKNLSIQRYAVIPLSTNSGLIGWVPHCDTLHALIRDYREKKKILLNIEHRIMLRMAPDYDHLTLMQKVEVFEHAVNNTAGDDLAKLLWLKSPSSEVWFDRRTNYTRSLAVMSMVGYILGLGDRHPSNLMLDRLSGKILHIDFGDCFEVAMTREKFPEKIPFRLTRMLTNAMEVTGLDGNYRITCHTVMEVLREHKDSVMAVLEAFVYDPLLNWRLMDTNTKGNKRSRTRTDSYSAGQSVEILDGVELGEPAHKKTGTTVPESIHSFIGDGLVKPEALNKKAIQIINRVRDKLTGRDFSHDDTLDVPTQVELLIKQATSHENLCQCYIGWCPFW
Description: mTOR kinase TR-FRET assay. The conditions noted are these: 20 μM ATP. It counts as biochemical. On the procedure:
Compound inhibition for mTOR kinase was determined in a homogeneous TR-FRET assay using the Lance® ULight-p70 S6K (Thr 389) peptide (obtained from Perkin-Elmer). The ULight™-labeled synthetic peptide contains the amino acid residues surrounding Thr389 of human p70 S6K. The ULight-p70 S6K peptide is phosphorylated at Thr389 by mTOR. Phosphorylation motif: LGFTYVAP as substrate.
The compound dilution was carried out in 100% DMSO followed by a buffer dilution. The reaction buffer was HEPES (50 mM pH 7.5), EGTA (1 mM), MnCl2 (3 mM). Test compounds at various concentrations were pre-incubated with mTOR (Millipore, USA; 5 ng) for 60 min, and then the Lance® ULight-p70 S6K (Thr 389) peptide (50 nM) was added along with ATP (20 μM). After incubating the reaction mixture for 60 minutes at room temperature, the kinase reaction was terminated by the addition of EDTA (10 mM) followed by the addition of detection mix, i.e., 1 nM Eu-labeled anti-phospho-substrate antibody (Perkin Elmer, USA). The fluorescence emission at […] was measured upon excitation at 340 nm. IC50 values were subsequently determined using a sigmoidal dose-response curve (variable slope) in GraphPad Prism® 5 software.
Compounds of formula (I) caused inhibition of mTOR kinase activity as determined by this assay.

Another test relates to PC3 cells. Description: XTT assay for cell viability, PC3 cells. It counts as cell-based. Particulars: Homo sapiens, PC-3; PC3 cell proliferation, 96 hours. On the procedure: Using a commercial kit from Sigma Aldrich (Catalog #X34251) and following its protocol, PC3 cells in the log phase of growth were employed and seeded at an optimal density of 1000 cell/well on to 96 well plates and incubated for 24 hours followed by the addition of compounds of formula (I) in serial dilutions. Compound dilutions were made in DMSO. The cells were incubated with the compounds of formula (I) for 96 hours and XTT tetrazolium dye (Sigma, USA) was subsequently added and incubated at 37° C. After the color formation, absorbance was measured at 465 nm in a Spectramax® Gemini spectrophotometer. EC50 values were calculated using a sigmoidal dose response curve fit in GraphPad Prism® v5 software. The tested compounds of formula (I) which caused inhibition of PC3 cell proliferation as determined by this assay protocol are shown in Table 2.
On the technique in general: Tetrazolium dyes change colour on reduction, which living cells bring about.

SMILES strings stand for the structures.

T1 sequence (P42336 whole entry, species assumed): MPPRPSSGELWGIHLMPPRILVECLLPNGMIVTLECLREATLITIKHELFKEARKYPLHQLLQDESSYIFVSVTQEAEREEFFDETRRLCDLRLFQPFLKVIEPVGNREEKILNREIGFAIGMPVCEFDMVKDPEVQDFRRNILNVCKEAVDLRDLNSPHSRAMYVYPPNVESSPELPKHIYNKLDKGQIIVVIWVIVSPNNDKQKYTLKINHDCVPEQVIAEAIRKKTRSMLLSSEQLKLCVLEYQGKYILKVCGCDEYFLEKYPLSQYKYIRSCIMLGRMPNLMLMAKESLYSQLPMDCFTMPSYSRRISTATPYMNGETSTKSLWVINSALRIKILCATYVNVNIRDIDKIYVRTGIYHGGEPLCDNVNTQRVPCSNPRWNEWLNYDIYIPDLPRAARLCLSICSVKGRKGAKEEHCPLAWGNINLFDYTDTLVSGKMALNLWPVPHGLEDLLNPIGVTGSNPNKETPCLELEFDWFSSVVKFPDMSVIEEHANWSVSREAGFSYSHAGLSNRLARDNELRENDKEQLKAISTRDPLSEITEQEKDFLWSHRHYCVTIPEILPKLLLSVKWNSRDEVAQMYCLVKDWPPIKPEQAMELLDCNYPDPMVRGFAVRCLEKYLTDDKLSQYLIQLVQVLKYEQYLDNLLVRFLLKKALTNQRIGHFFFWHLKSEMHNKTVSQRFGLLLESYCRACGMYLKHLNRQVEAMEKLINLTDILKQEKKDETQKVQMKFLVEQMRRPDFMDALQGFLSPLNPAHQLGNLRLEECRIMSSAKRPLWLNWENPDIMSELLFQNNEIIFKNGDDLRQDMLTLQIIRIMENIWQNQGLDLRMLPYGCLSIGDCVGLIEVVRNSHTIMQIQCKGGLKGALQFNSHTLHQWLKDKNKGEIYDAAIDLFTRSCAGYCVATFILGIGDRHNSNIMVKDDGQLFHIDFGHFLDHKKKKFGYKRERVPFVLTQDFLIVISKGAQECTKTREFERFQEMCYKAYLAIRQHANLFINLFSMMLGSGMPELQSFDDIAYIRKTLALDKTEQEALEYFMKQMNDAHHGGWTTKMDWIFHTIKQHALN
T1 sequence (P27986 whole entry partner, species assumed): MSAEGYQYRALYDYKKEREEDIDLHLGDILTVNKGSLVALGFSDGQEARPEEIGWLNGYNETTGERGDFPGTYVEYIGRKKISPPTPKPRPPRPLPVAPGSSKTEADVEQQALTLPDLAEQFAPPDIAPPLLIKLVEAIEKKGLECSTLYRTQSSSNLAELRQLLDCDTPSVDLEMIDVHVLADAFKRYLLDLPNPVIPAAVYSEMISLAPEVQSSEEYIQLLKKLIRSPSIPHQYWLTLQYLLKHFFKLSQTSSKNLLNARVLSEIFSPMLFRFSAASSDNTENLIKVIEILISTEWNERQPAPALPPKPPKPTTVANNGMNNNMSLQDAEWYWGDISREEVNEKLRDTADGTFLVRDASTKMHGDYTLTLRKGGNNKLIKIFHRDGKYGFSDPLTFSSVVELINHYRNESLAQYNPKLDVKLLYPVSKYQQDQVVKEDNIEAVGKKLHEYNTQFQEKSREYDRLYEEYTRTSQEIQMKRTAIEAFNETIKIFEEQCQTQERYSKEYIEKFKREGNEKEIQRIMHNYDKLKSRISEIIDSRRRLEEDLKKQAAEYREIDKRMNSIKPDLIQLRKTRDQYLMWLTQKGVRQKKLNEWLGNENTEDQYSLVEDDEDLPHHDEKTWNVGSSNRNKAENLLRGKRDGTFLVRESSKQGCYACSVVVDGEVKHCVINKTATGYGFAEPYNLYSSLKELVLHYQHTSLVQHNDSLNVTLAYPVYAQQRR

As usually defined, the IC50 is the midpoint of a concentration-inhibition curve. The low end stands for inhibition by little substance, the high end for a need for much substance. `Nc1ncc(-c2nc(N3CCOCC3)c3ncc(-c4ccc(C(=O)NC5CC5)cc4)cc3n2)cn1` [Example 4, 4-(2-(2-Aminopyrimidin-5-yl)-4-morpholinopyrido[3,2-d]pyrimidin-7-yl)-N-cyclopropylbenzamide]: the IC50 is less than 50 nM against PI3Kα (wild-type), less than 50 nM on mTOR kinase and less than 100 nM in the test on PC3 cells.
For the compound `Nc1ncc(-c2nc(N3CCOCC3)c3ncc(-c4cccc(NC(=O)N5CCOCC5)c4)cc3n2)cn1` [Example 10, N-(3-(2-(2-aminopyrimidin-5-yl)-4-morpholinopyrido[3,2-d]pyrimidin-7-yl)-phenyl)morpholine-4-carboxamide], the values for the IC50 on PI3Kα (wild-type), on mTOR kinase and with PC3 cells were less than 50 nM, less than 50 nM and 501 to 5000 nM, respectively.
Turning to `CC(=O)Nc1cccc(-c2ccc3c(N4CCOCC4)nc(-c4cnc(N)nc4)nc3c2)c1` [Example 13, N-(3-(2-(2-amino-pyrimidin-5-yl)-4-morpholinoquinazolin-7-yl)phenyl)acetamide], the IC50 against PI3Kα (wild-type) is 201 to 10000 nM; against mTOR kinase it was 50 to 200 nM; with PC3 cells it was 501 to 5000 nM.
In the case of `Cn1cc(-c2ccc3c(N4CCOCC4)nc(-c4cnc(N)nc4)nc3c2)cn1` [Example 14, 5-(7-(1-methyl-1H-pyrazol-4-yl)-4-morpholinoquinazolin-2-yl)pyrimidin-2-amine], the IC50 at PI3Kα (wild-type) was in the range of 201 to 10000 nM; on mTOR kinase, 201 to 10000 nM; with PC3 cells, 501 to 5000 nM.
`CNC(=O)Nc1cccc(-c2ccc3c(N4CCOCC4)nc(-c4cnc(N)nc4)nc3c2)c1` [Example 15, 1-(3-(2-(2-amino-pyrimidin-5-yl)-4-morpholinoquinazolin-7-yl)phenyl)-3-methylurea]: the IC50 against PI3Kα (wild-type) is 201 to 10000 nM; at mTOR kinase, less than 50 nM; in the test with PC3 cells, 501 to 5000 nM.
The like results for `CS(=O)(=O)Nc1cccc(-c2ccc3c(N4CCOCC4)nc(-c4cnc(N)nc4)nc3c2)c1` [Example 16, N-(3-(2-(2-amino-pyrimidin-5-yl)-4-morpholinoquinazolin-7-yl)phenyl)methane-sulfonamide] were, in that order, 50 to 200 nM, less than 50 nM and 501 to 5000 nM.
Consider `Nc1ncc(-c2nc(N3CCOCC3)c3ncc(-c4ccc(C(=O)N5CCC(O)CC5)cc4)cc3n2)cn1` [Example 39, (4-(2-(2-aminopyrimidin-5-yl)-4-morpholino-pyrido[3,2-d]pyrimidin-7-yl)phenyl)(4-hydroxy-piperidin-1-yl)methanone], for which the IC50 with PC3 cells is 501 to 5000 nM.
The compound `Nc1ncc(-c2nc(N3CCOCC3)c3ncc(-c4cccc(C(=O)N5CCC(O)CC5)c4)cc3n2)cn1` [Example 40, (3-(2-(2-aminopyrimidin-5-yl)-4-morpholino-pyrido[3,2-d]pyrimidin-7-yl)phenyl)(4-hydroxy-piperidin-1-yl)methanone] displayed a half-maximal inhibitory concentration (IC50) with PC3 cells of 100 to 500 nM.
Regarding `Cc1cc(C(=O)Nc2cccc(-c3cnc4c(N5CCOCC5)nc(-c5cnc(N)nc5)nc4c3)c2)[nH]n1` [Example 75, N-(3-(2-(2-amino-pyrimidin-5-yl)-4-morpholinopyrido[3,2-d]pyrimidin-7-yl)phenyl)-3-methyl-1H-pyrazole-5-carboxamide], the IC50 at PI3Kα (wild-type) and at mTOR kinase was less than 50 nM in each case.
Turning to `Cc1cc(C(=O)Nc2ccc(-c3cnc4c(N5CCOCC5)nc(-c5cnc(N)nc5)nc4c3)cc2)[nH]n1` [Example 80, N-(4-(2-(2-amino-pyrimidin-5-yl)-4-morpholinopyrido[3,2-d]pyrimidin-7-yl)phenyl)-3-methyl-1H-pyrazole-5-carboxamide], in the test with PC3 cells, the IC50 was more than 1000 nM.
In the case of `CN1CCN(C(=O)Nc2cccc(-c3ccc4c(N5CCOCC5)nc(-c5cnc(N)nc5)nc4c3)c2)CC1` [Example 87, N-(3-(2-(2-amino-pyrimidin-5-yl)-4-morpholinoquinazolin-7-yl)phenyl)-4-methyl-piperazine-1-carboxamide], the IC50 on PI3Kα (wild-type) was less than 50 nM; against mTOR kinase, 201 to 10000 nM.
In the case of `Nc1ncc(-c2nc(N3CCOCC3)c3ccc(-c4cccc(NC(=O)N5CCOCC5)c4)cc3n2)cn1` [Example 88, N-(3-(2-(2-amino-pyrimidin-5-yl)-4-morpholinoquinazolin-7-yl)phenyl)morpholine-4-carboxamide], the half-maximal inhibitory concentration (IC50) on PI3Kα (wild-type) and against mTOR kinase was 50 to 200 nM in each case.
Regarding `CC(O)C(=O)N1CCN(Cc2ccc3c(N4CCOCC4)nc(-c4cnc(N)nc4)nc3c2)CC1` (stereo not shown) [Example 90, 1-(4-((2-(2-aminopyrimidin-5-yl)-4-morpholinoquinazolin-7-yl)methyl)piperazin-1-yl)-2-hydroxypropan-1-one], the IC50 at PI3Kα (wild-type) and against mTOR kinase was 201 to 10000 nM in each case.
In the case of `CC(C)(O)C(=O)N1CCN(Cc2ccc3c(N4CCOCC4)nc(-c4cnc(N)nc4)nc3c2)CC1` [Example 91, 1-(4-((2-(2-amino-pyrimidin-5-yl)-4-morpholinoquinazolin-7-yl)methyl)piperazin-1-yl)-2-hydroxy-2-methyl-propan-1-one], the concentration for half-maximal inhibition (IC50) on PI3Kα (wild-type) and on mTOR kinase was 201 to 10000 nM throughout.
As to `CC(=O)N1CCN(Cc2ccc3c(N4CCOCC4)nc(-c4cnc(N)nc4)nc3c2)CC1` [Example 92, 1-(4-((2-(2-amino-pyrimidin-5-yl)-4-morpholinoquinazolin-7-yl)methyl)piperazin-1-yl)ethanone], the IC50 at PI3Kα (wild-type) and against mTOR kinase was 201 to 10000 nM throughout.
`CC(=O)NC1CCN(Cc2ccc3c(N4CCOCC4)nc(-c4cnc(N)nc4)nc3c2)CC1` [Example 93, N-(1-((2-(2-amino-pyrimidin-5-yl)-4-morpholinoquinazolin-7-yl)methyl)piperidin-4-yl)-acetamide]: the IC50 on PI3Kα (wild-type) and at mTOR kinase was 201 to 10000 nM throughout.
`Nc1ncc(-c2nc(N3CCOCC3)c3ncc(CN4CCNCC4)cc3n2)cn1` [Example 94, 5-(4-morpholino-7-(piperazin-1-yl-methyl)pyrido[3,2-d]-pyrimidin-2-yl)pyrimidin-2-amine]: the concentration for half-maximal inhibition (IC50) was in the range of 50 to 200 nM against PI3Kα (wild-type) and 201 to 10000 nM against mTOR kinase.
The corresponding values for `CS(=O)(=O)Nc1cncc(-c2cnc3c(N4CCOCC4)nc(-c4cnc(N)nc4)nc3c2)c1` [Example 96, N-(5-(2-(2-amino-pyrimidin-5-yl)-4-morpholinopyrido[3,2-d]-pyrimidin-7-yl)pyridin-3-yl)methanesulfonamide] are less than 50 nM and less than 50 nM.
Consider `CN1CCN(C(=O)c2cccc(-c3cnc4c(N5CCOCC5)nc(-c5cnc(N)nc5)nc4c3)c2)CC1` [Example 110, (3-(2-(2-aminopyrimidin-5-yl)-4-morpholinopyrido[3,2-d]-pyrimidin-7-yl)phenyl)(4-methylpiperazin-1-yl)-methanone], for which the IC50 fell in the range of 50 to 200 nM at mTOR kinase and 100 to 500 nM with PC3 cells.
Turning to `CN(C)CC(=O)N1CCN(c2cccc(-c3cnc4c(N5CCOCC5)nc(-c5cnc(N)nc5)nc4c3)c2)CC1` [Example 112, 1-(4-(3-(2-(2-amino-pyrimidin-5-yl)-4-morpholinopyrido[3,2-d]pyrimidin-7-yl)-phenyl)piperazin-1-yl)-2-(dimethylamino)ethanone], the IC50 against PI3Kα (wild-type) and against mTOR kinase was less than 50 nM in each case.

These data come from US9145411B2, “Substituted amino-pyrimidine derivatives” (Asana Biosciences, LLC, priority 2012, dated 2015).
